Patent US12473310B2, “Vitamin D3 phosphate and pharmaceutically acceptable salts thereof, pharmaceutical compositions comprising the compound and methods for preparing the compound” (King's College London, priority 2020, dated 2025)

Experiments:
[1] = chemical stability on storage over 4 weeks; type: physicochemical
Experimental: The chemical stability of cholecalciferol phosphate acid/disodium salt was assessed in three different conditions over a 4-week period. Aliquots of 2 mg for each sample was stored at room temperature, 4° C., and −20° C. in a glass bottle covered with foil. A 20 mL sample of MeOH and MeOH:water (90:10) was added to cholecalciferol phosphate acid and cholecalciferol phosphate disodium salt, and the concentration and purity were assessed every week by the HPLC method described previously. The peak area was used to calculate sample concentration and the gradient of the data points being used to calculate the degradation rate.

[2] = physchem; type: physicochemical; conditions: % Recovery
Experimental: To validate the method of test agent recovery from the skin, solutions (1.0 mg/mL) of each vitamin D analogue were prepared in 100% PG. The precise concentrations in these samples were analysed by HPLC method described above. To assess the chemical stability of each test agent in the donor solutions used in the Franz cell experiments, 1.0 mg/mL of the samples prepared in 100% PG were incubated in a water bath at 37° C. for 24 h. In addition, to understand the chemical stability of each test agent in the extraction solvents used in the skin deposition studies, 1 mL of the drug sample in 100% PG was added into 10 mL of extraction fluid (MeOH for cholecalciferol, cholecalciferol phosphate acid, and MeOH:water, 90:10 for cholecalciferol phosphate disodium salt). Samples in PG (n=3) and samples in PG with the extraction fluid (n=3) were left in the water bath overnight at 37° C. and the sample concentration was analysed by the HPLC method described above. To assess whether the HPLC fluid had been impacted by any proteins that had leaked out of the skin, PG:water, 80:20 was added to donor and receiver chambers of porcine skin loaded Franz cells (n=3). A 5 mL sample of the receiver fluid was collected, and 25 μL of each test solution was added to this fluid and diluted to MeOH (1:1) and analysed by the HPLC method described previously. To verify the percentage of drug that could be recovered from the skin tissue, the skin sections were dermatomed (1 mm thickness) (n=3). The test solutions were spiked (50 μL) into a sample bottle containing the chopped dermatomed skin tissue. The samples containing the spiked drugs were left for 1 h for the drugs to absorb into the tissues. After the 1 h incubation period, 5 mL of extraction fluid (MeOH for cholecalciferol, cholecalciferol phosphate acid, and MeOH:water, 90:10 for cholecalciferol phosphate disodium salt) was added into each piece of the dermatomed skin tissue, then incubated in a shaking water bath for 1 h. The solutions were then tissue lysed by a tissue lyser for 40 min and homogenised by Ultra Turrax for 1 min and filtered using 0.45 μm syringe filters, centrifuged for 10 min at 13,000 rpm, and analysed by the HPLC method described above. In terms of cholecalciferol phosphate acid, after 1 h incubation and adding 5 mL extraction fluid, immediately the solutions with skin tissues were tissue lysed by a tissue lyser for 15 min. The solutions were then centrifuged for 10 min at 13,000 rpm and the supernatants were analysed by the HPLC method described above.

[3] = solubility in donor solution and thermodynamic activity (Table 4); type: physicochemical; conditions: PG
[4] = skin permeation and deposition, automated Franz diffusion cell (Example 5); type: in vitro ADME; conditions: PG formulation
Experimental: For the final formulation, 61.5 mg of cholecalciferol phosphate acid in 4.1 mL hexane was added into 1.435 mL DURO-TAK 87-2051 (51.5 w/v %) with 16.4 μL α-tocopherol and 20.5 μL diethylene glycol monoethyl ether. Likewise, 120 mg of cholecalciferol phosphate disodium salt in 35.2 mL MeOH:water (10:1) was added to 1.336 mL of DURO-TAK 87-2051 (51.5 w/v %) in 56 mL ethyl acetate with 32 mg of α-tocopherol and 48 μL diethylene glycol monoethyl ether. Each formulation was spread evenly on the 10×10 cm patch tray and left overnight to dry completely. Following the complete drying of the solvents, the adhesive layer was covered by the M3 Release layer (SCOTCHPAK 9755, UK), compressed, and then cut using a 34 mm circular manual die cutter (SCP Super Cutting Press, UK).
Subsequently, 1 mL aliquots were applied to the skin.
The automated Franz diffusion cell was used to investigate the permeation of cholecalciferol, cholecalciferol phosphate salt and cholecalciferol phosphate acid through porcine skin. Fresh white adult porcine ears were obtained from a local butcher (Ginger Pig, UK). Any damaged ears were discarded. The ears were removed from the carcass after hair removal. […] The collected receiver fluid was analysed by HPLC methods described previously.
At the end of the transport studies, the Franz cells were dismantled, and the donor solution was collected into bottles containing 10 mL of extraction fluid; MeOH for cholecalciferol, cholecalciferol phosphate acid and MeOH:water (90:10) for cholecalciferol phosphate salt, by wiping the surface of the skin and the inside of the donor compartment with two wet and then two dry cotton buds. […] Each collection was analysed by the HPLC method described above. Thus, the amount of each test agent on the surface of the skin, deposited in the skin, and passed into the receiver fluid was determined so that % mass recovery per cm^2 per skin could be calculated and drug deposition profiles could be obtained.

[5] = patch pre-formulation, saturated concentration in adhesive; type: physicochemical; conditions: DURO-TAK 87-2051 adhesive
Experimental: To each solution, 175 μL of the transdermal adhesive DURO-TAK 87-2051 (51.5 w/v %) was added, and vortexed. Then 2.0 μL of α-tocopherol and 2.5 μL of diethylene glycol monoethyl ether were added and vortexed. The visual solubility was assessed.
To this solution 4 mg of α-tocopherol in 3 mL ethyl acetate was added and 167 μL of the transdermal adhesive DURO-TAK 87-2051 (51.5 w/v %) in 7 mL ethyl acetate with 6 μL diethylene glycol monoethyl ether was also added.
Each solution (3×3 cm) was cast onto the backing (3M™ Scotchpak™ Polyester Backing Film Laminate 9730, UK) to determine the clarity, and the saturation limit of the test agents in the adhesive mixtures.

## C=C1CC[C@H](OP(=O)(O)O)C/C1=C/C=C1\CCC[C@@]2(C)C1CC[C@@H]2[C@H](C)CCCC(C)C (stereo in doubt) [Cholecalciferol phosphate acid, cholecalciferol phosphate acid]
[1]; 4° C.
  loss of the original compound over 4 weeks: 9.98%
  reduction of purity over 4 weeks: 27.18%
[1]; room temperature
  loss of the original compound over 4 weeks: 77.15%
  reduction of purity over 4 weeks: 72.2%
[1]; −20° C.
  reduction of purity over 4 weeks: 1.03%
[2]; chemical stability with extraction fluid
  recovery at 0.091 mg/mL: 92.2 ± 2.26%
[2]; chemical stability without extraction fluid
  recovery at 24 h, 1 mg/mL: 88.5 ± 3.35%
[3]
  Solubility in PG: 4690 µg/mL
[4]
  fold higher transdermal permeation through the skin compared to cholecalciferol: about 9.34 fold
[5]
  saturated concentration in patch formulation (highest loading without precipitation): 5.02 w/w %
